# “And” between values parts separate entries of the source, which are not always exact repeats. Equal entries are not always repeated. Where two headings read alike, the source gives them in different places.
# Key:
# [1] = tested on: spleen lymphocytes from C57BL/6 mice; assay: In vitro lymphocyte stimulation assay, C57BL/6 spleen lymphocytes; assay type: cell-based, mouse
# Protocol: (§1) The purpose of this assay is to challenge lymphocytes in microcultures with one or more polyclonal mitogens at concentrations that will induce mitogenesis within 72 hours of stimulation.
# (§2) In the mouse model, spleens are removed from different strains of mice and the spleen cells are teased free and suspended in RPMI-1640 tissue culture medium at a concentration of usually 1×10^7 ml. These cells are dispensed at a concentration of 5.0×10^5 cells per microculture well in a 96 well flat bottom 96 well tissue culture plate. All testing of the compounds of this invention or mitogens are done in replicates of 10. The cells are then treated with PHA, Con-A, specific antigens, or buffer only. If in vitro testing is done, varying concentrations of the compounds of this invention or buffer only are added to the cells as well. After treatment with the mitogens and/or compounds of this invention, the cells are incubated for 72 hours. The response of these cells to mitogens and/or the compounds of this invention is assessed using ^14 C-thymidine labeling on the fourth day at a concentration of 0.01 μCi/well. The labeled cells are harvested using a lymphocyte harvestor and placed onto fibrous paper discs. A scintillation cocktail is added to vials contaning the discs and the results are obtained using a LKB-liquid scintillation counter (Model 1216/Rackbeta II). The data is expressed as a ratio of the cpm of the mitogen stimulated group to the control (non-mitogen) treated group=lymphocyte stimulation index (LSI).
# (§3) The lymphocyte stimulation assay may be performed directly on spleen cells obtained from various strains of mice not treated with the compounds of this invention or on lymphocytes obtained from […]. […] Alternatively, the mice may be treated in vivo with the compounds of this invention by intraperitoneal multi-dose schedules, followed by sacrifice and harvesting spleen lymphocytes. These cells are then tested for their response to polyclonal mitogens or specific antigens used to immunize the mice. In this sytem however, no additional compound is added to the in vitro lymphocyte stimulation assay system.
# An in vitro lymphocyte stimulation assay is performed directly on normal spleen lymphocytes removed from five normal C57BL/6 mice, using concentrations of Cpd. […] Following three days of incubation the assay is completed.
# An in vitro lymphocyte stimulation assay was performed using spleen lymphocytes from normal C57BL/6 mice. The lymphocytes were treated with either 1, 5, 10, 50, or 100 μg/well of Cpd. 1 or buffer.
# Cpd. 2 was tested using normal spleen lymphocytes from C57BL/6 mice. A lymphocyte stimulation assay was conducted using either 1, 5, 10, 50, or 100 μg/well […] or just buffer.
# Spleen cells from C57BL/6 mice were treated, in vitro, with the crystallizing reagents, succinic acid and succinimide. Since these compounds are spontaneously released from the molecular complex in solution at a molar ratio of 2 moles of Cpds. 1, 2, or 3 per mole of the crystalline reagent, these reagents were treated in the lymphocyte stimulation assay at proper molar concentrations.
# The compound of example 3, Cpd. 3, was used to treat C57BL/6 spleen lymphocytes in vitro. The lymphocytes were treated with either 1, 5, 10, 50, or 100 μg/well of Cpd. 3 or just buffer and then a lymphocyte stimulation assay was performed.
# [2] = tested on: spleen lymphocytes of SJL/J mice
# Protocol: as §1, §2, §3
# Three month old mice of the SJL/J strain, which are T-cell deficient, are treated with i.p. administration of 100, 200, or 400 mg/kg of Cpd. 1 or just buffer for four days. This is followed by a lymphocyte stimulation assay.
# An in vivo lymphocyte stimulation assay was performed on SJL/J mice of different ages, either 2, 5, or 10 months. The mice received i.p. injections of either 100 mg/kg of Cpd. 1 or just buffer.
# [3] = tested on: antibody response to keyhole limpet hemocyanin (KLH)
# Description: The effect of the compounds of this invention on the immune response to specific antigens involves immunization of mice with specific anitgens such as bovine serum albumin (BSA) or keyhole limpet hemocyanin (KLH). Following immunization, it is possible to assess the cell-mediated or humoral (antibody) immune response to these antigens by various methods:
# (2) Antibody response to soluble antigens such as BSA or KLH can be quantitated using a micro-ELISA solid phase heterogeneous immunoassay. The assay can be designed to quantitate class specific immunoglobulins (i.e., IgG or IgM).
# The cut-off for the titer was the highest dilution of mouse serum yielding an O.D.≤0.1 when read on the MR-600 Dynatech micro-ELISA reader.
# Mice of the C57BL/6 strain are given i.p. injections of either 50, 100, 200 or 400 mg/kg of Cpd. 1 or buffer for ten days (days 1-10). An antigen, keyhole limpet hemocyanin (KLH), is administered intraperitoneally with Freund's Complete Adjuvant (FCA) on days 1, 7, and 13. Blood samples are taken for assay of the antibody response on days 0, 5, 12, and 17. Spleens are removed, lymphocytes isolated and a lymphocyte stimulation assay with PHA, Con-A or KLH antigen as the mitogens is performed on day 17 of the experiment.
# [4] = 100 mg/kg i.p., four days, three month old mice
# [5] = 200 mg/kg i.p., four days, three month old mice
# [6] = 400 mg/kg i.p., four days, three month old mice
smiles,measurement,setting,value
Cc1ccc(C2(O)C(=O)OC3C(O)COC32O)o1.Cc1ccc(C2(O)C(=O)OC3C(O)COC32O)o1.O=C1CCC(=O)O1 (centres unmarked) [Cpd. 1],"Lymphocyte Stimulation Index, Con-A",[1]; 1 μg/well in vitro,178 and 123
same,"Lymphocyte Stimulation Index, PHA",[1]; 1 μg/well in vitro,53.8 and 80.4
same,"Lymphocyte Stimulation Index, Con-A",[1]; 5 μg/well in vitro,162
same,"Lymphocyte Stimulation Index, Control (no mitogen)",[1]; 5 μg/well in vitro,1.8
same,"Lymphocyte Stimulation Index, PHA",[1]; 5 μg/well in vitro,157
same,"mitogenesis, PHA and Con-A",[1]; 10 μg/well (Example 12),significant suppression
same,"Lymphocyte Stimulation Index, Con-A",[1]; 50 μg/well in vitro,3.78
same,"Lymphocyte Stimulation Index, Control (no mitogen)",[1]; 50 μg/well in vitro,.20
same,"Lymphocyte Stimulation Index, PHA",[1]; 50 μg/well in vitro,.261
same,"Lymphocyte Stimulation Index, Con-A",[1]; 100 μg/well in vitro,.308
same,"Lymphocyte Stimulation Index, Control (no mitogen)",[1]; 100 μg/well in vitro,.20
same,"Lymphocyte Stimulation Index, PHA",[1]; 100 μg/well in vitro,.292
same,"mitogenesis, PHA and Con-A",[1]; 0.001-1.0 μg/well,significant stimulation of mitogenesis
same,response to PHA and Con-A,[1]; 5 and 10 μg/well,significant increases
same,lymphocyte response to the mitogens,[1]; 50 and 100 μg/well,significant decreases
same,"Lymphocyte Stimulation Index, Con-A",[1]; .001 μg/well in vitro,198
same,"Lymphocyte Stimulation Index, Control (no mitogen)",[1]; .001 μg/well in vitro,3.8
same,"Lymphocyte Stimulation Index, PHA",[1]; .001 μg/well in vitro,80.4
same,"Lymphocyte Stimulation Index, Con-A",[1]; .01 μg/well in vitro,198
same,"Lymphocyte Stimulation Index, Control (no mitogen)",[1]; .01 μg/well in vitro,3.2
same,"Lymphocyte Stimulation Index, PHA",[1]; .01 μg/well in vitro,87.5
same,"Lymphocyte Stimulation Index, Con-A",[1]; .1 μg/well in vitro,198
same,"Lymphocyte Stimulation Index, Control (no mitogen)",[1]; .1 μg/well in vitro,3.2
same,"Lymphocyte Stimulation Index, PHA",[1]; .1 μg/well in vitro,83.1
same,"Lymphocyte Stimulation Index, Con-A","[2]; 100 mg/kg i.p., age 2 months",167
same,"Lymphocyte Stimulation Index, Control (no mitogen)","[2]; 100 mg/kg i.p., age 2 months",2.3
same,"Lymphocyte Stimulation Index, PHA","[2]; 100 mg/kg i.p., age 2 months",32.6
same,"Lymphocyte Stimulation Index, Con-A","[2]; 100 mg/kg i.p., age 5 months",12.9
same,"Lymphocyte Stimulation Index, Control (no mitogen)","[2]; 100 mg/kg i.p., age 5 months",1.9
same,"Lymphocyte Stimulation Index, PHA","[2]; 100 mg/kg i.p., age 5 months",1.16
same,"Lymphocyte Stimulation Index, Con-A","[2]; 100 mg/kg i.p., age 10 months",14.5
same,"Lymphocyte Stimulation Index, Control (no mitogen)","[2]; 100 mg/kg i.p., age 10 months",2.1
same,"Lymphocyte Stimulation Index, PHA","[2]; 100 mg/kg i.p., age 10 months",9.18
same,"Lymphocyte Stimulation Index, Con-A",[2]; [4],5.01
same,"Lymphocyte Stimulation Index, Control (no mitogen)",[2]; [4],0.573
same,"Lymphocyte Stimulation Index, PHA",[2]; [4],1.85
same,Con-A response,"[2]; 100 mg/kg, 2 months of age",increased
same,PHA response,"[2]; 100 mg/kg, 2 months of age",decreased
same,mitogenesis response to PHA and Con-A,"[2]; 100 mg/kg, 5 months of age",depressed mitogenesis response
same,PHA and Con-A mitogenic response,"[2]; 100 mg/kg, ten month old",significant stimulation
same,"Lymphocyte Stimulation Index, Con-A",[2]; [5],4.57
same,"Lymphocyte Stimulation Index, Control (no mitogen)",[2]; [5],0.732
same,"Lymphocyte Stimulation Index, PHA",[2]; [5],1.79
same,"Lymphocyte Stimulation Index, Con-A",[2]; [6],3.30
same,"Lymphocyte Stimulation Index, Control (no mitogen)",[2]; [6],0.693
same,"Lymphocyte Stimulation Index, PHA",[2]; [6],2.31
same,Micro-ELISA Titer,"[3]; 50 mg/kg i.p., day 5",N/R
same,Micro-ELISA Titer,"[3]; 50 mg/kg i.p., prebleed",N/R
same,Micro-ELISA Titer,"[3]; 100 mg/kg i.p., day 5",N/R
same,Micro-ELISA Titer,"[3]; 100 mg/kg i.p., prebleed",N/R
same,Micro-ELISA Titer,"[3]; 200 mg/kg i.p., day 5",N/R
same,Micro-ELISA Titer,"[3]; 200 mg/kg i.p., prebleed",N/R
same,Micro-ELISA Titer,"[3]; 400 mg/kg i.p., day 5",N/R
same,Micro-ELISA Titer,"[3]; 400 mg/kg i.p., prebleed",N/R
same,stimulation of antibody response to KLH over control,"[3]; 200 and 400 mg/kg, day 12",significant stimulation (four-fold increases)
same,increase of antibody response to KLH over untreated antigen-sensitized controls,"[3]; 200 and 400 mg/kg, day 17",eight-fold increase
